Data set [1] can be described thus: Basic safety tests (mutagenicity, biodegradability, oral acute toxicity, primary skin irritation, primary eye irritation). The note with it: biodegradability and three acute toxicity tests performed by a designated organization. The source says: In the development of drugs, quasi drugs, foods and the like, the most important and the biggest hurdle is the verification of safety of a rare sugar as a novel substance. A mutagenicity test, a biodegradability test and three types of acute toxicity tests (an oral acute toxicity test, a primary skin irritation test and a primary eye irritation test) are defined as the most basic safety tests. A rare sugar is a monosaccharide that exists in nature even in a small amount, therefore, it can be predicted that it will be safe. However, it is necessary to perform verification precisely. We asked the designated organization to perform the basic safety tests for three types of rare sugars, D-psicose, D-allose and allitol among rare sugars.

Data set [2] deals with CLA-1 promoter. In words: CLA-1 promoter luciferase reporter gene activity in HepG2 cells. The conditions noted are these: HepG2, 24 hours; 2.8-22.4 mM D-glucose or 22.4 mM D-psicose. Type of data set: cell-based, human. The procedure: Further, by integrating a 1200 by promoter region of the CLA-1 gene into a luciferase reporter gene, introducing the gene into a cell and measuring the luciferase activity, the transcriptional activity of CLA-1 was determined.
6. The transcriptional activity of CLA-1 was also examined. The luciferase reporter gene containing the CLA-1 promoter was introduced into HepG2 cells and the resulting HepG2 cells were cultured with 2.8 mM (lane 1), 5.6 mM (lane 2), 11.2 mM (lane 3), 22.4 mM (lane 4) D-glucose or 22.4 mM D-psicose for 24 hours and the luciferase activity was measured. A high concentration of D-glucose inhibited the activity of the CLA-1 promoter.

In the case of `O=C[C@H](O)[C@H](O)[C@H](O)[C@H](O)CO` [D-allose], in data set [1], the basic safety tests result was “there are not any problems in the safety”.
Consider `O=C[C@H](O)[C@@H](O)[C@H](O)[C@H](O)CO` [D-glucose, reference compound], for which the “activity of the CLA-1 promoter (luciferase activity)” value in data set [2] is listed as “inhibited”.
As for `O=C(CO)[C@H](O)[C@H](O)[C@H](O)CO` [D-psicose], in data set [2], the “activity of the CLA-1 promoter (luciferase activity)” value is on record as “did not affect”. In addition, the basic safety tests result in data set [1] is “there are not any problems in the safety”.
Regarding `OC[C@@H](O)[C@@H](O)[C@@H](O)[C@@H](O)CO` [allitol], the basic safety tests entry in data set [1] is “there are not any problems in the safety”.
